Results: patent US12338220B2, “Antiviral pyrazolopiridinone compounds” (Novartis AG, priority 2019, dated 2025)
Read-outs that look alike come from different tables or passages of the source.

What was measured:
CMV-polymerase = CMV-polymerase (Human cytomegalovirus (strain AD169) (HHV-5) (Human herpesvirus 5), UniProt P08546); test: biochemical
CMV = test: microbe, parasite or virus in culture; type: cell-based; conditions: Human betaherpesvirus 5, 72 h, read-out: CMV-Luc Cellular EC50, NN-NHDF cells, MOI 1, 72 hrs
[1] = read-out: CMV-polymerase Biochemical IC50

Cn1nc(C(=O)NCc2ccc(C#N)cc2)c2c1C(=O)N(CC1(S(=O)(=O)NC3CC3)CC1)CC2 [Example 129, N-(4-cyanobenzyl)-6-((1-(N-cyclopropylsulfamoyl)cyclopropyl)methyl)-1-methyl-7-oxo-4,5,6,7-tetrahydro-1H-pyrazolo[3,4-c]pyridine-3-carboxamide]
IC50 (CMV-polymerase; [1]): 16 nM | EC50 (CMV): 247 nM

Cn1nc(C(=O)NCc2ccc(C#N)cc2)c2c1C(=O)N(CC1(S(=O)(=O)NC3COC3)CC1)CC2 [Example 132, N-(4-Cyanobenzyl)-1-methyl-6-((1-(N-(oxetan-3-yl)sulfamoyl)cyclopropyl)methyl)-7-oxo-4,5,6,7-tetrahydro-1H-pyrazolo[3,4-c]pyridine-3-carboxamide]
IC50 (CMV-polymerase; [1]): 20 nM | EC50 (CMV): 289 nM

Cn1nc(C(=O)NCc2ccc(C#N)cc2)c2c1C(=O)N(CC1(S(=O)(=O)N3CCNCC3)CC1)CC2 [Example 133, N-(4-Cyanobenzyl)-1-methyl-7-oxo-6-((1-(piperazin-1-ylsulfonyl)cyclopropyl)methyl)-4,5,6,7-tetrahydro-1H-pyrazolo[3,4-c]pyridine-3-carboxamide]
IC50 (CMV-polymerase; [1]): 20 nM | EC50 (CMV): 97 nM

Cn1nc(C(=O)NCc2ccc(C#N)cc2)c2c1C(=O)N(CC1(S(=O)(=O)NCCCN)CC1)CC2 [Example 134, 6-((1-(N-(3-Aminopropyl)sulfamoyl)cyclopropyl)methyl)-N-(4-cyanobenzyl)-1-methyl-7-oxo-4,5,6,7-tetrahydro-1H-pyrazolo[3,4-c]pyridine-3-carboxamide]
IC50 (CMV-polymerase; [1]): 31 nM | EC50 (CMV): 443 nM

Cn1nc(C(=O)NCc2ccc(C#N)cc2)c2c1C(=O)N(CC1(S(=O)(=O)NCCN)CC1)CC2 [Example 135, 6-((1-(N-(2-Aminoethyl)sulfamoyl)cyclopropyl)methyl)-N-(4-cyanobenzyl)-1-methyl-7-oxo-4,5,6,7-tetrahydro-1H-pyrazolo[3,4-c]pyridine-3-carboxamide]
IC50 (CMV-polymerase; [1]): 62 nM | EC50 (CMV): 536 nM

CN1CCN(S(=O)(=O)C2(CN3CCc4c(C(=O)NCc5ccc(C#N)cc5)nn(C)c4C3=O)CC2)CC1 [Example 136, N-(4-Cyanobenzyl)-1-methyl-6-((1-((4-methylpiperazin-1-yl)sulfonyl)cyclopropyl)methyl)-7-oxo-4,5,6,7-tetrahydro-1H-pyrazolo[3,4-c]pyridine-3-carboxamide]
IC50 (CMV-polymerase; [1]): 18 nM | EC50 (CMV): 199 nM

Cn1nc(C(=O)NCc2ccc(C#N)cc2)c2c1C(=O)N(CC1(S(=O)(=O)NC3CCNCC3)CC1)CC2 [Example 137, N-(4-Cyanobenzyl)-1-methyl-7-oxo-6-((1-(N-(piperidin-4-yl)sulfamoyl)cyclopropyl)methyl)-4,5,6,7-tetrahydro-1H-pyrazolo[3,4-c]pyridine-3-carboxamide]
IC50 (CMV-polymerase; [1]): 44 nM | EC50 (CMV): 636 nM

Cn1nc(C(=O)NCc2ccc(C#N)cc2)c2c1C(=O)N(CC1(S(=O)(=O)N3CCC(N)CC3)CC1)CC2 [Example 138, 6-((1-((4-Aminopiperidin-1-yl)sulfonyl)cyclopropyl)methyl)-N-(4-cyanobenzyl)-1-methyl-7-oxo-4,5,6,7-tetrahydro-1H-pyrazolo[3,4-c]pyridine-3-carboxamide]
IC50 (CMV-polymerase; [1]): 21 nM | EC50 (CMV): 127 nM

Cn1nc(C(=O)NCc2ccc(C#N)cc2)c2c1C(=O)N(CC1(S(=O)(=O)N3C[C@@H](N)[C@H](O)C3)CC1)CC2 [Example 139, 6-((1-(((3R,4R)-3-Amino-4-hydroxypyrrolidin-1-yl)sulfonyl)cyclopropyl)methyl)-N-(4-cyanobenzyl)-1-methyl-7-oxo-4,5,6,7-tetrahydro-1H-pyrazolo[3,4-c]pyridine-3-carboxamide]
IC50 (CMV-polymerase; [1]): 8 nM | EC50 (CMV): 533 nM

Cn1nc(C(=O)NCc2ccc(C#N)cc2)c2c1C(=O)N(CC1(S(=O)(=O)N3C[C@H](N)[C@@H](O)C3)CC1)CC2 [Example 140, 6-((1-(((3S,4S)-3-Amino-4-hydroxypyrrolidin-1-yl)sulfonyl)cyclopropyl)methyl)-N-(4-cyanobenzyl)-1-methyl-7-oxo-4,5,6,7-tetrahydro-1H-pyrazolo[3,4-c]pyridine-3-carboxamide]
IC50 (CMV-polymerase; [1]): 11 nM | EC50 (CMV): 418 nM

Cn1nc(C(=O)NCc2ccc(C#N)cc2)c2c1C(=O)N(CC1(S(=O)(=O)N3CC[C@@H](N)C3)CC1)CC2 [Example 141, (R)-6-((1-((3-Aminopyrrolidin-1-yl)sulfonyl)cyclopropyl)methyl)-N-(4-cyanobenzyl)-1-methyl-7-oxo-4,5,6,7-tetrahydro-1H-pyrazolo[3,4-c]pyridine-3-carboxamide]
IC50 (CMV-polymerase; [1]): 13 nM | EC50 (CMV): 51 nM

Cn1nc(C(=O)NCc2ccc(C#N)cc2)c2c1C(=O)N(CC1(S(=O)(=O)N3CC[C@H](N)C3)CC1)CC2 [Example 142, (S)-6-((1-((3-Aminopyrrolidin-1-yl)sulfonyl)cyclopropyl)methyl)-N-(4-cyanobenzyl)-1-methyl-7-oxo-4,5,6,7-tetrahydro-1H-pyrazolo[3,4-c]pyridine-3-carboxamide]
IC50 (CMV-polymerase; [1]): 18 nM | EC50 (CMV): 66 nM

Cn1nc(C(=O)NCc2ccc(Cl)cc2)c2c1C(=O)N(CC1(S(=O)(=O)NCCO)CC1)CC2 [Example 143, N-(4-Chlorobenzyl)-6-((1-(N-(2-hydroxyethyl)sulfamoyl)cyclopropyl)methyl)-1-methyl-7-oxo-4,5,6,7-tetrahydro-1H-pyrazolo[3,4-c]pyridine-3-carboxamide]
IC50 (CMV-polymerase; [1]): 19 nM | EC50 (CMV): 138 nM

CN(CCO)S(=O)(=O)C1(CN2CCc3c(C(=O)NCc4ccc(Cl)cc4)nn(C)c3C2=O)CC1 [Example 144, N-(4-Chlorobenzyl)-6-((1-(N-(2-hydroxyethyl)-N-methylsulfamoyl)cyclopropyl)methyl)-1-methyl-7-oxo-4,5,6,7-tetrahydro-1H-pyrazolo[3,4-c]pyridine-3-carboxamide]
IC50 (CMV-polymerase; [1]): 4 nM | EC50 (CMV): 44 nM

Cn1nc(C(=O)NCc2ccc(C#N)cc2)c2c1C(=O)N(CC1(S(=O)(=O)NCCO)CC1)CC2 [Example 145, N-(4-Cyanobenzyl)-6-((1-(N-(2-hydroxyethyl)sulfamoyl)cyclopropyl)methyl)-1-methyl-7-oxo-4,5,6,7-tetrahydro-1H-pyrazolo[3,4-c]pyridine-3-carboxamide]
IC50 (CMV-polymerase; [1]): 14 nM | EC50 (CMV): 303 nM

CN(CCO)S(=O)(=O)C1(CN2CCc3c(C(=O)NCc4ccc(C#N)cc4)nn(C)c3C2=O)CC1 [Example 146, N-(4-Cyanobenzyl)-6-((1-(N-(2-hydroxyethyl)-N-methylsulfamoyl)cyclopropyl)methyl)-1-methyl-7-oxo-4,5,6,7-tetrahydro-1H-pyrazolo[3,4-c]pyridine-3-carboxamide]
IC50 (CMV-polymerase; [1]): 3 nM | EC50 (CMV): 61 nM

CN(C(CO)CO)S(=O)(=O)C1(CN2CCc3c(C(=O)NCc4ccc(C#N)cc4)nn(C)c3C2=O)CC1 [Example 147, N-(4-Cyanobenzyl)-6-((1-(N-(1,3-dihydroxypropan-2-yl)-N-methylsulfamoyl)cyclopropyl)methyl)-1-methyl-7-oxo-4,5,6,7-tetrahydro-1H-pyrazolo[3,4-c]pyridine-3-carboxamide]
IC50 (CMV-polymerase; [1]): 30 nM | EC50 (CMV): 604 nM

Cn1nc(C(=O)NCc2ccc(Cl)cc2)c2c1C(=O)N(CC1(S(=O)(=O)NC(C)(C)CO)CC1)CC2 [Example 148, N-(4-Chlorobenzyl)-6-((1-(N-(1-hydroxy-2-methylpropan-2-yl)sulfamoyl)cyclopropyl)methyl)-1-methyl-7-oxo-4,5,6,7-tetrahydro-1H-pyrazolo[3,4-c]pyridine-3-carboxamide]
IC50 (CMV-polymerase; [1]): 15 nM | EC50 (CMV): 139 nM

Cn1nc(C(=O)NCc2ccc(C#N)cc2)c2c1C(=O)N(CC1(S(=O)(=O)NC(C)(C)CO)CC1)CC2 [Example 149, N-(4-Cyanobenzyl)-6-((1-(N-(1-hydroxy-2-methylpropan-2-yl)sulfamoyl)cyclopropyl)methyl)-1-methyl-7-oxo-4,5,6,7-tetrahydro-1H-pyrazolo[3,4-c]pyridine-3-carboxamide]
IC50 (CMV-polymerase; [1]): 12 nM | EC50 (CMV): 166 nM

Cn1nc(C(=O)NCc2ccc(Cl)cc2)c2c1C(=O)N(CC1(S(=O)(=O)N3CC(O)C3)CC1)CC2 [Example 150, N-(4-Chlorobenzyl)-6-((1-((3-hydroxyazetidin-1-yl)sulfonyl)cyclopropyl)methyl)-1-methyl-7-oxo-4,5,6,7-tetrahydro-1H-pyrazolo[3,4-c]pyridine-3-carboxamide]
IC50 (CMV-polymerase; [1]): 6 nM | EC50 (CMV): 67 nM

CNS(=O)(=O)C1(CN2CCc3c(C(=O)NCc4ccc(Cl)cc4)nn(C)c3C2=O)CC1 [Example 151, N-(4-Chlorobenzyl)-1-methyl-6-((1-(N-methylsulfamoyl)cyclopropyl)methyl)-7-oxo-4,5,6,7-tetrahydro-1H-pyrazolo[3,4-c]pyridine-3-carboxamide]
IC50 (CMV-polymerase; [1]): 8 nM | EC50 (CMV): 64 nM

Cn1nc(C(=O)NCc2ccc(Cl)cc2)c2c1C(=O)N(CC1(S(=O)(=O)NCC(C)(C)O)CC1)CC2 [Example 152, N-(4-Chlorobenzyl)-6-((1-(N-(2-hydroxy-2-methylpropyl)sulfamoyl)cyclopropyl)methyl)-1-methyl-7-oxo-4,5,6,7-tetrahydro-1H-pyrazolo[3,4-c]pyridine-3-carboxamide]
IC50 (CMV-polymerase; [1]): 30 nM | EC50 (CMV): 834 nM

Cn1nc(C(=O)NCc2ccc(Cl)cc2)c2c1C(=O)N(CC1(S(=O)(=O)NC(C)(CO)CO)CC1)CC2 [Example 153, N-(4-Chlorobenzyl)-6-((1-(N-(1,3-dihydroxy-2-methylpropan-2-yl)sulfamoyl)cyclopropyl)methyl)-1-methyl-7-oxo-4,5,6,7-tetrahydro-1H-pyrazolo[3,4-c]pyridine-3-carboxamide]
IC50 (CMV-polymerase; [1]): 20 nM | EC50 (CMV): 305 nM

Cn1nc(C(=O)NCc2ccc(C#N)cc2)c2c1C(=O)N(CC1(S(=O)(=O)Nc3ccccn3)CC1)CC2 [Example 155, N-(4-cyanobenzyl)-1-methyl-7-oxo-6-((1-(N-(pyridin-2-yl)sulfamoyl)cyclopropyl)methyl)-4,5,6,7-tetrahydro-1H-pyrazolo[3,4-c]pyridine-3-carboxamide]
IC50 (CMV-polymerase; CMV-polymerase Biochemical IC50): 2 nM | EC50 (CMV): 57 nM
